{"source": "patent US9540366B2", "about": "“Ring-fused heterocyclic compound” (Kyowa Hakko Kirin Co., Ltd., priority 2012, dated 2017)", "target": "T1, human Cav3.2 T-type Ca2+ channel (Homo sapiens, UniProt O95180)", "T1 construct": "expressed in transfected cells; host or cells: KJMGER8 cells (Namalwa cell-derived cell line)", "T1 sequence (O95180 whole entry)": "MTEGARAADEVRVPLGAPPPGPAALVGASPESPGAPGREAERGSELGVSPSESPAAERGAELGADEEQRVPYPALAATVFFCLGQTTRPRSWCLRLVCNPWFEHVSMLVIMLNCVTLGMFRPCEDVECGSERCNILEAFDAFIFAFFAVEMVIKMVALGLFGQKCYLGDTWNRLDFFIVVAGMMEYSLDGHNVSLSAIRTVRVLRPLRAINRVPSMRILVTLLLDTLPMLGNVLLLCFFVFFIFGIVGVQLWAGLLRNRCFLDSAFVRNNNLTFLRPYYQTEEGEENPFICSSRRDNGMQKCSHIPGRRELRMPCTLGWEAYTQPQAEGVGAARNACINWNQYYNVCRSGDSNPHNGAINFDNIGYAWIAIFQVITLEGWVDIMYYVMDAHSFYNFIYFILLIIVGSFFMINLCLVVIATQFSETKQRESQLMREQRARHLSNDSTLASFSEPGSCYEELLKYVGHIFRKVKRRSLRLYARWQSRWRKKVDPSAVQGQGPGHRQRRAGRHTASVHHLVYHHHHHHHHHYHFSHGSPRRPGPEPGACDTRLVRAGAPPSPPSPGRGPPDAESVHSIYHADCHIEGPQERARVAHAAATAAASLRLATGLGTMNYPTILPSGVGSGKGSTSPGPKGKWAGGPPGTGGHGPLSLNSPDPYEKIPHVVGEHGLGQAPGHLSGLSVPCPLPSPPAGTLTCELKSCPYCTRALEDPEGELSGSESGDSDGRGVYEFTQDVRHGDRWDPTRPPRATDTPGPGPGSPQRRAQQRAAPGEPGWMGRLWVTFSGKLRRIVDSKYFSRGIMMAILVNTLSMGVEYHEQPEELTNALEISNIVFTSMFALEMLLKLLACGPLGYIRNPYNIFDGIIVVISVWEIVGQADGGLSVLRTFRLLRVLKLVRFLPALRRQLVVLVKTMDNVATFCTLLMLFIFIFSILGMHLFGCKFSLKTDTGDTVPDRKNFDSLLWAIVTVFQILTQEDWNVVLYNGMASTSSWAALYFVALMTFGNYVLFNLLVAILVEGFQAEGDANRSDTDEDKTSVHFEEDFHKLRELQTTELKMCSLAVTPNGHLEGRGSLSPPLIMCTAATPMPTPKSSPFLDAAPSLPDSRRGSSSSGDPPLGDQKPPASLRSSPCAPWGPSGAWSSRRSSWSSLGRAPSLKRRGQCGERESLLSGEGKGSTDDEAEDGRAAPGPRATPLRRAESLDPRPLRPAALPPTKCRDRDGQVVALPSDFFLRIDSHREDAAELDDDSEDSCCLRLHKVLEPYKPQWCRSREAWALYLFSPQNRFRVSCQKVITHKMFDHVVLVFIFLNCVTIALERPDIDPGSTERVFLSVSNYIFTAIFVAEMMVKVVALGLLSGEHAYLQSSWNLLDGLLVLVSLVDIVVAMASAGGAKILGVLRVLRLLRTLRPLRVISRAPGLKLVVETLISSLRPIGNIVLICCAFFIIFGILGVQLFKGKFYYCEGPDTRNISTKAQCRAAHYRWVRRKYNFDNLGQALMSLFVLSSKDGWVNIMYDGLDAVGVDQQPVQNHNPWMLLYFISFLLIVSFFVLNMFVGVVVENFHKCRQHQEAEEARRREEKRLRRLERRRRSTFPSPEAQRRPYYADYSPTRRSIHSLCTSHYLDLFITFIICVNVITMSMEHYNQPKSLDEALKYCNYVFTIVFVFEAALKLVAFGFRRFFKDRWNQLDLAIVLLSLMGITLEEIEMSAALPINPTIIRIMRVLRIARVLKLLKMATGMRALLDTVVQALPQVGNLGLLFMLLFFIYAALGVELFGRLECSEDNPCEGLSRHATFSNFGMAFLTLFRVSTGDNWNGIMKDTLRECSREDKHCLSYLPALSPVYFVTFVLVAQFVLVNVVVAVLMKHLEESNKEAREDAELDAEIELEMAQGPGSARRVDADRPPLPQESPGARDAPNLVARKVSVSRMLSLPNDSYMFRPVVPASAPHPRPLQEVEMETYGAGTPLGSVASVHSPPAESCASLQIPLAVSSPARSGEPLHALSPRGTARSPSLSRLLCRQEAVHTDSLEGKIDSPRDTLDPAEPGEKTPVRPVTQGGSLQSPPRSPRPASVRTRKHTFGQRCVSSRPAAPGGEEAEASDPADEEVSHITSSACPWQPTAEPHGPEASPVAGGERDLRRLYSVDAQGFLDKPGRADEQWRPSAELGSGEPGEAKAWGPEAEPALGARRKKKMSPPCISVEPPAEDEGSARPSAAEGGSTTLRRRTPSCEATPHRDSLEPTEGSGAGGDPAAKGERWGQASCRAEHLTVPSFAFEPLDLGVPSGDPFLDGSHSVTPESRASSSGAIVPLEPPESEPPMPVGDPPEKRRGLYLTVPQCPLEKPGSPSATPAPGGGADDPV", "experiment": "Inhibitory effect for intracellular calcium response via Cav3.2 T-type Ca2+ channels (FLIPR Calcium 3 Assay Kit)", "type": "cell-based", "key": {"[1]": {"details": "human Cav3.2-expressing KJMGER8 cells (Namalwa-derived), calcium response induced by 5 mmol/L CaCl2, 3 μmol/L mibefradil as reference, read-out: IC50 for the human Cav3.2 T-type Ca2+ current"}}, "note": "Where two headings read alike, the source gives them in different places."}
{"smiles": "N#Cc1cc(C(=O)NC2CCC3(CC2)COC3)cc2nc(C(F)(F)F)c(CC3CCC(F)(F)CC3)n12", "note": "[Compound 70, 5-Cyano-3-[(4,4-difluorocyclohexyl)methyl]-N-(2-oxaspiro[3.5]nonan-7-yl)-2-(trifluoromethyl)imidazo[1,2-a]pyridine-7-carboxamide]", "values": [{"measurement": "IC50", "setting": "[1]", "value": "≤ 100", "unit": "nM"}]}
{"smiles": "CCOC(=O)CNC(=O)c1cc(Cl)n2c(CC3CCC(F)(F)CC3)c(C(F)(F)F)nc2c1", "note": "[Compound 110, Ethyl 2-{5-chloro-3-[(4,4-difluorocyclohexyl)methyl]-2-(trifluoromethyl)imidazo[1,2-a]pyridine-7-carboxamide}acetate]", "values": [{"measurement": "IC50", "value": "≤ 100", "unit": "nM"}]}
{"smiles": "Cc1cc(C(=O)NOC2CCOCC2)cc2nc(C(F)(F)F)c(CC3CCC(F)(F)CC3)n12", "note": "[Compound 72, 3-[(4,4-Difluorocyclohexyl)methyl]-5-methyl-N-(tetrahydro-2H-pyran-4-yloxy)-2-(trifluoromethyl)imidazo[1,2-a]pyridine-7-carboxamide]", "values": [{"measurement": "IC50", "value": "≤ 100", "unit": "nM"}]}
{"smiles": "Cc1cc(NC(=O)c2cc(C#N)n3c(CC4CCC(F)(F)CC4)c(C(F)(F)F)nc3c2)on1", "note": "[Compound 138, 5-Cyano-3-[(4,4-difluorocyclohexyl)methyl]-N-(3-methylisoxazol-5-yl)-2-(trifluoromethyl)imidazo[1,2-a]pyridine-7-carboxamide]", "values": [{"measurement": "IC50", "setting": "[1]", "value": "≤ 100", "unit": "nM"}]}
{"smiles": "CCOC(=O)C1(NC(=O)c2cc(C#N)n3c(CC4CCC(F)(F)CC4)c(C(F)(F)F)nc3c2)CC1", "note": "[Compound 161, Ethyl 1-{5-cyano-3-[(4,4-difluorocyclohexyl)methyl]-2-(trifluoromethyl)imidazo[1,2-a]pyridine-7-carboxamide}cyclopropanecarboxylate]", "values": [{"measurement": "IC50", "value": "≤ 100", "unit": "nM"}]}
{"smiles": "CC(=O)c1nc2cc(C(=O)Nc3ccccc3)cc(C)n2c1CC1CCC(F)(F)CC1", "note": "[Compound 19, 2-Acetyl-3-[(4,4-difluorocyclohexyl)methyl]-5-methyl-N-phenylimidazo[1,2-a]pyridine-7-carboxamide]", "values": [{"measurement": "IC50", "value": "≤ 100", "unit": "nM"}]}
{"smiles": "N#Cc1cc(C(=O)N2C[C@H]3COC[C@@H](C2)C3=O)cc2nc(C(F)(F)F)c(CC3CCC(F)(F)CC3)n12", "note": "[Compound 210, 3-[(4,4-Difluorocyclohexyl)methyl]-7-[(1R,5S)-9-oxo-3-oxa-7-azabicyclo[3.3.1]nonane-7-carbonyl)-2-(trifluoromethyl)imidazo[1,2-a]pyridine-5-carbonitrile]", "values": [{"measurement": "IC50", "setting": "[1]", "value": "≤ 100", "unit": "nM"}]}
{"smiles": "CCOC(=O)C(C)NC(=O)c1cc(Cl)n2c(CC3CCC(F)(F)CC3)c(C(F)(F)F)nc2c1", "note": "(stereo not drawn) [Compound 123, Ethyl 2-{5-chloro-3-[(4,4-difluorocyclohexyl)methyl]-2-(trifluoromethyl)imidazo[1,2-a]pyridine-7-carboxamide}propanoate]", "values": [{"measurement": "IC50", "value": "≤ 100", "unit": "nM"}]}
{"smiles": "Cc1cc(C(=O)NC(C)(C)C)cc2nc(C(C)(F)F)c(CC3CCC(F)(F)CC3)n12", "note": "[Compound 218, N-tert-Butyl-3-[(4,4-difluorocyclohexyl)methyl]-2-(1,1-difluoroethyl)-5-methylimidazo[1,2-a]pyridine-7-carboxamide]", "values": [{"measurement": "IC50", "value": "≤ 100", "unit": "nM"}]}
{"smiles": "CC(F)(F)c1nc2cc(C(=O)NC3CCOCC3)cc(C#N)n2c1Cc1ccc(Cl)cc1", "note": "[Compound 221, 3-(4-Chlorobenzyl)-5-cyano-2-(1,1-difluoroethyl)-N-(tetrahydro-2H-pyran-4-yl)imidazo[1,2-a]pyridine-7-carboxamide]", "values": [{"measurement": "IC50", "value": "≤ 100", "unit": "nM"}]}
{"smiles": "O=C(NCc1ccccn1)c1cc(Cl)n2c(CC3CCC(F)(F)CC3)c(C(F)(F)F)nc2c1", "note": "[Compound 106]", "values": [{"measurement": "IC50", "value": "≤ 100", "unit": "nM"}]}
{"smiles": "CC(F)(F)c1nc2cc(C(=O)N[C@H]3C[C@@H]4CC[C@H]3O4)cc(C=O)n2c1CC1CCC(F)(F)CC1", "note": "[Compound 179, N-[(1R,2S,4S)-7-Oxabicyclo[2.2.1]heptan-2-yl]-3-[(4,4-difluorocyclohexyl)methyl]-2-(1,1-difluoroethyl)-5-formylimidazo[1,2-a]pyridine-7-carboxamide]", "values": [{"measurement": "IC50", "value": "≤ 100", "unit": "nM"}]}
{"smiles": "N#Cc1cc(C(=O)NCC2COCCO2)cc2nc(C(F)(F)F)c(CC3CCC(F)(F)CC3)n12", "note": "(stereo not drawn) [Compound 59, N-[(1,4-Dioxan-2-yl)methyl]-5-cyano-3-[(4,4-difluorocyclohexyl)methyl]-2-(trifluoromethyl)imidazo[1,2-a]pyridine-7-carboxamide]", "values": [{"measurement": "IC50", "setting": "[1]", "value": "≤ 100", "unit": "nM"}]}
{"smiles": "CC(C)(O)CNC(=O)c1cc(C#N)n2c(CC3CCC(F)(F)CC3)c(C(F)(F)F)nc2c1", "note": "[Compound 51, 5-Cyano-3-[(4,4-difluorocyclohexyl)methyl]-N-(2-hydroxy-2-methylpropyl)-2-(trifluoromethyl)imidazo[1,2-a]pyridine-7-carboxamide]", "values": [{"measurement": "IC50", "value": "≤ 100", "unit": "nM"}]}
{"smiles": "Cc1cc(C(=O)N[C@H]2C[C@@H]3CC[C@H]2O3)cc2nc(C(C)(F)F)c(Cc3ccc(Cl)cc3)n12", "note": "[Compound 215, N-[(1R,2S,4S)-7-Oxabicyclo[2.2.1]heptan-2-yl]-3-(4-chlorobenzyl)-2-(1,1-difluoroethyl)-5-methylimidazo[1,2-a]pyridine-7-carboxamide]", "values": [{"measurement": "IC50", "setting": "[1]", "value": "≤ 100", "unit": "nM"}]}
{"smiles": "Cc1cc(C(O)c2nc3ccccc3[nH]2)cc2nc(C(F)(F)F)c(CC3CCC(F)(F)CC3)n12", "note": "(stereo not drawn) [Compound 112, (1H-Benzo[d]imidazol-2-yl){3-[(4,4-difluorocyclohexyl)methyl]-5-methyl-2-(trifluoromethyl)imidazo[1,2-a]pyridin-7-yl}methanol]", "values": [{"measurement": "IC50", "setting": "[1]", "value": "≤ 100", "unit": "nM"}]}
{"smiles": "CC(F)(F)c1nc2cc(C(=O)Nc3ccccc3)c(Cl)cn2c1CC1CCC(F)(F)CC1", "note": "[Compound 5, 6-Chloro-3-[(4,4-difluorocyclohexyl)methyl]-2-(1,1-difluoroethyl)-N-phenylimidazo[1,2-a]pyridine-7-carboxamide]", "values": [{"measurement": "IC50", "value": "≤ 100", "unit": "nM"}]}
{"smiles": "N#Cc1cc(C(=O)NC2CC3(COC3)C2)cc2nc(C(F)(F)F)c(CC3CCC(F)(F)CC3)n12", "note": "[Compound 146, 5-Cyano-3-[(4,4-difluorocyclohexyl)methyl]-N-(2-oxaspiro[3.3]heptan-6-yl)-2-(trifluoromethyl)imidazo[1,2-a]pyridine-7-carboxamide]", "values": [{"measurement": "IC50", "setting": "[1]", "value": "≤ 100", "unit": "nM"}]}
{"smiles": "CC(C)(NC(=O)c1cc(Cl)n2c(CC3CCC(F)(F)CC3)c(C(F)(F)F)nc2c1)C1CCOCC1", "note": "[Compound 81, 5-Chloro-3-[(4,4-difluorocyclohexyl)methyl]-N-[2-(tetrahydro-2H-pyran-4-yl)propan-2-yl]-2-(trifluoromethyl)imidazo[1,2-a]pyridine-7-carboxamide]", "values": [{"measurement": "IC50", "value": "≤ 100", "unit": "nM"}]}
{"smiles": "N#Cc1cc(C(=O)NCCCN2CCCC2=O)cc2nc(C(F)(F)F)c(CC3CCC(F)(F)CC3)n12", "note": "[Compound 149, 5-Cyano-3-[(4,4-difluorocyclohexyl)methyl]-N-[3-(2-oxopyrrolidin-1-yl)propyl]-2-(trifluoromethyl)imidazo[1,2-a]pyridine-7-carboxamide]", "values": [{"measurement": "IC50", "setting": "[1]", "value": "≤ 100", "unit": "nM"}]}
{"smiles": "Cc1c(C(=O)NC2CCOCC2)cc2nc(C(F)(F)F)c(CC3CCC(F)(F)CC3)n2c1C", "note": "[Compound 167, 3-[(4,4-Difluorocyclohexyl)methyl]-5,6-dimethyl-N-(tetrahydro-2H-pyran-4-yl)-2-(trifluoromethyl)imidazo[1,2-a]pyridine-7-carboxamide]", "values": [{"measurement": "IC50", "value": "≤ 100", "unit": "nM"}]}
{"smiles": "Cc1cc(NC(=O)c2cc3nc(C(C)(C)Cl)c(S(=O)(=O)N4CC(F)(F)C4)n3cc2Cl)on1", "note": "[Compound 28, 6-Chloro-2-(2-chloropropan-2-yl)-3-(3,3-difluoroazetidin-1-ylsulfonyl)-N-(3-methylisoxazol-5-yl)imidazo[1,2-a]pyridine-7-carboxamide]", "values": [{"measurement": "IC50", "setting": "[1]", "value": "≤ 100", "unit": "nM"}]}
{"smiles": "Cc1cc(C(=O)NC2CCOCC2)cc2nc(C(C)(F)F)c(Cc3ccc(Cl)cc3)n12", "note": "[Compound 214, 3-(4-Chlorobenzyl)-2-(1,1-difluoroethyl)-5-methyl-N-(tetrahydro-2H-pyran-4-yl)imidazo[1,2-a]pyridine-7-carboxamide]", "values": [{"measurement": "IC50", "value": "≤ 100", "unit": "nM"}]}
{"smiles": "N#Cc1cc(C(=O)NC2CCOC2)cc2nc(C(F)(F)F)c(CC3CCC(F)(F)CC3)n12", "note": "(stereo not drawn) [Compound 62]", "values": [{"measurement": "IC50", "value": "≤ 100", "unit": "nM"}]}
{"smiles": "N#Cc1cc(C(=O)Nc2ccccc2N)cc2nc(C(F)(F)F)c(CC3CCC(F)(F)CC3)n12", "note": "[Compound 52, N-(2-Aminophenyl)-5-cyano-3-[(4,4-difluorocyclohexyl)methyl]-2-(trifluoromethyl)imidazo[1,2-a]pyridine-7-carboxamide]", "values": [{"measurement": "IC50", "value": "≤ 100", "unit": "nM"}]}
{"smiles": "COC1(CNC(=O)c2cc(C#N)n3c(CC4CCC(F)(F)CC4)c(C(F)(F)F)nc3c2)CCOCC1", "note": "[Compound 141, 5-Cyano-3-[(4,4-difluorocyclohexyl)methyl]-N-[(4-methoxytetrahydro-2H-pyran-4-yl)methyl]-2-(trifluoromethyl)imidazo[1,2-a]pyridine-7-carboxamide]", "values": [{"measurement": "IC50", "value": "≤ 100", "unit": "nM"}]}
{"smiles": "CC(C)c1nc2cc(C(=O)NCC(F)(F)F)cc(C#N)n2c1CC1CCC(F)(F)CC1", "note": "[Compound 171, 5-Cyano-3-[(4,4-difluorocyclohexyl)methyl]-2-isopropyl-N-(2,2,2-trifluoroethyl)imidazo[1,2-a]pyridine-7-carboxamide]", "values": [{"measurement": "IC50", "value": "≤ 100", "unit": "nM"}]}
{"smiles": "O=C(NNC(=O)C1CC1)c1cc(Cl)n2c(CC3CCC(F)(F)CC3)c(C(F)(F)F)nc2c1", "note": "[Compound 142, 5-Chloro-N′-(cyclopropanecarbonyl)-3-[(4,4-difluorocyclohexyl)methyl]-2-(trifluoromethyl)imidazo[1,2-a]pyridine-7-carbohydrazide]", "values": [{"measurement": "IC50", "value": "≤ 100", "unit": "nM"}]}
{"smiles": "Cc1cc(C(=O)Nc2ccccc2)cc2nc(C(C)O)c(CC3CCC(F)(F)CC3)n12", "note": "(stereo not drawn) [Compound 20, 3-[(4,4-Difluorocyclohexyl)methyl]-2-(1-hydroxyethyl)-5-methyl-N-phenylimidazo[1,2-a]pyridine-7-carboxamide]", "values": [{"measurement": "IC50", "setting": "[1]", "value": "≤ 100", "unit": "nM"}]}
{"smiles": "CC(F)(F)c1nc2cc(C(=O)NC3CC4(COC4)C3)c(Cl)cn2c1CC1CCC(F)(F)CC1", "note": "[Compound 147, 6-Chloro-3-[(4,4-difluorocyclohexyl)methyl]-2-(1,1-difluoroethyl)-N-(2-oxaspiro[3.3]heptan-6-yl)imidazo[1,2-a]pyridine-7-carboxamide]", "values": [{"measurement": "IC50", "value": "≤ 100", "unit": "nM"}]}
